{"source": "patent US20250129028A1", "about": "“COMPOUNDS AND METHODS FOR YAP/TEAD MODULATION AND INDICATIONS THEREFOR” (Opna Bio SA, priority 2022, published 2025)", "data": [{"tested_on": "TEAD-dependent transcription", "assay": "TEAD-dependent transcription cell-based reporter assay (MSTO-211H+12XGTIIC luciferase)", "design": "species or system human", "conditions": "Homo sapiens; MSTO-211H+12XGTIIC cell line, luciferase signal normalized to cell viability, 24 hours compound incubation; read-out: MSTO-211H GMean IC50 (uM) Cell Assay Reporter Cell Variant: TEAD", "outline": "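MSTO-211H mesothelioma cells stably carrying a 12xGTIIC TEAD-response-element luciferase reporter, treated with serial compound dilutions for 24 h at 37 °C. Luminescence normalized to CellTiter-Fluor viability signal; % inhibition versus DMSO and 20 μM K-975 controls, IC50 by nonlinear regression.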", "units": {"IC50": "µM"}, "values": [{"smiles": "NC(=O)CCN1CCc2ccc(Oc3ccc(C(F)(F)F)cc3)cc2C1", "note": "[P-0029, 3-(7-(4-(trifluorometh-yl)phenoxy)-3,4-dihydro-isoquinolin-2(1H)-yl)-propanamide]", "IC50": "10 to 100"}, {"smiles": "CSCCC(=O)N1CCc2ccc(Oc3ccc(C(F)(F)F)cc3)cc2C1", "note": "[P-0031, 3-(methylthio)-1-(7-(4-(trifluoromethyl)phen-oxy)-3,4-dihydroisoquin-olin-2(1H)-yl)propan-1-one]", "IC50": "0.001 to 10"}, {"smiles": "CS(=O)(=O)N1CC(C(=O)N2CCc3ccc(Oc4ccc(C(F)(F)F)cc4)cc3C2)C1", "note": "[P-0080, (1-(methylsulfonyl)azeti-din-3-yl)(7-(4-(trifluoro-methyl)phenoxy)-3,4-dihydroisoquinolin-2(1H)-yl)methanone]", "IC50": "0.001 to 10"}, {"smiles": "O=C(Cc1cocn1)N1CCc2c(cccc2Oc2ccc(C(F)(F)F)cc2)C1", "note": "[P-0246, 2-(oxazol-4-yl)-1-(5-(4-(trifluoromethyl)phen-oxy)-3,4-dihydroisoquin-olin-2(1H)-yl)ethan-1-one]", "IC50": "0.001 to 10"}, {"smiles": "O=C(Cc1c[nH]c(=O)[nH]c1=O)N1CCc2ccc(Oc3ccc(C(F)(F)F)c(F)c3)cc2C1", "note": "[P-0139, 5-(2-(7-(3-fluoro-4-(trifluoromethyl)phen-oxy)-3,4-dihydroisoquin-olin-2(1H)-yl)-2-oxoeth-yl)pyrimidine-2,4(1H, 3H)-dione]", "IC50": "0.001 to 10"}]}]}
